{
  "source": "ChEMBL document CHEMBL5696443",
  "about": "(Clin Cancer Res, 2016)",
  "key": {"[1]": {"target": "Protein kinase C zeta type (Homo sapiens) (UniProt Q05513)", "sequence (Q05513 whole entry)": "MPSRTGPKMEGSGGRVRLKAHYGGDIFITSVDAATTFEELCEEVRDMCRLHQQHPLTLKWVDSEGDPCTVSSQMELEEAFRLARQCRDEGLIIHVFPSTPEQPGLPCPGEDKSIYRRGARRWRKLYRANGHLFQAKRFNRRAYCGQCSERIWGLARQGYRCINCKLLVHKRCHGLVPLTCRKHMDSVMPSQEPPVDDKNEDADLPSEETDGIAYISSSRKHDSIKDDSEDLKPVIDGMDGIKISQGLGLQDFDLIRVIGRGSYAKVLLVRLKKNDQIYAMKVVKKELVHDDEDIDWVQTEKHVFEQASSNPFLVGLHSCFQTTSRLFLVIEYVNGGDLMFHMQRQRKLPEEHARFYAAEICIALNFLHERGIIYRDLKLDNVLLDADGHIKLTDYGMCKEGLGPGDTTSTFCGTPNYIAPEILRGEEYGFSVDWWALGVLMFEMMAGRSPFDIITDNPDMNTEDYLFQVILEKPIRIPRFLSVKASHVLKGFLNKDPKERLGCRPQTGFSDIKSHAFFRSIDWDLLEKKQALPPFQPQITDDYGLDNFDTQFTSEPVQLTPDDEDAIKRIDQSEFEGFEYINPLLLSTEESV", "assay": "Inhibition of human PRKCZ at 1 uM using ERMRPRKRQGSVRRRV as substrate in presence of [gamma33P]-ATP by HotSpot assay relative to control"}, "[2]": {"target": "Serine/threonine-protein kinase TAO3 (Homo sapiens) (UniProt Q9H2K8)", "assay": "Inhibition of human TAOK3 at 1 uM using MBP as substrate in presence of [gamma33P]-ATP by HotSpot assay relative to control"}, "[3]": {"target": "Serine/threonine-protein kinase DCLK2 (Homo sapiens) (UniProt Q8N568)", "assay": "Inhibition of human DCLK2 at 1 uM using KKLNRTLSFAEPG as substrate in presence of [gamma33P]-ATP by HotSpot assay relative to control"}, "[4]": {"assay": "Toxicity in SCID Beige mouse xenografted with ALK positive human KARPAS-299 cells assessed as effect on body weight at 10 to 50 mg/kg", "format": "organism-based", "details": "in vivo, dose 10-50 mg/kg"}, "[5]": {"target": "Ribosomal protein S6 kinase alpha-4 (Homo sapiens) (UniProt O75676)", "sequence (O75676 whole entry, looked up)": "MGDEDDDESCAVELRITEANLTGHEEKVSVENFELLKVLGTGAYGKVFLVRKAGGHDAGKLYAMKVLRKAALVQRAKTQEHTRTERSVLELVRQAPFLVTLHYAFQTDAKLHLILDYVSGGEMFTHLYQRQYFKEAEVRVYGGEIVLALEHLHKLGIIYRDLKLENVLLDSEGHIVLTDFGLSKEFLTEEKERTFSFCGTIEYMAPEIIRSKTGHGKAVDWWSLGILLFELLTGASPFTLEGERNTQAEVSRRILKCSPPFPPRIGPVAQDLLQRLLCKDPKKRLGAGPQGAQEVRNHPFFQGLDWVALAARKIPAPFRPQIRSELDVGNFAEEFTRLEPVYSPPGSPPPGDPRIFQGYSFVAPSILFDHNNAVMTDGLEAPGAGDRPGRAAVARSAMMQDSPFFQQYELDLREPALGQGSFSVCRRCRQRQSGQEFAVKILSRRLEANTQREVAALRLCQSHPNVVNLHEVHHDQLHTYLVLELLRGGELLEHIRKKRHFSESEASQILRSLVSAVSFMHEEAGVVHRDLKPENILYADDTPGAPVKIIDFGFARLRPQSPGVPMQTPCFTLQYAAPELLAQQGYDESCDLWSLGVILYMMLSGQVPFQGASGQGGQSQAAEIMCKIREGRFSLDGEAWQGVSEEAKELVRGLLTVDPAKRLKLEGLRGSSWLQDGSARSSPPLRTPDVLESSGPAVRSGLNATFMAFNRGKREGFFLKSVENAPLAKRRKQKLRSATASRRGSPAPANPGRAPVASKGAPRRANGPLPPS", "assay": "Inhibition of human RPS6KA4 at 1 uM using GRPRTSSFAEG as substrate in presence of [gamma33P]-ATP by HotSpot assay relative to control"}, "[6]": {"target": "Inhibitor of nuclear factor kappa-B kinase subunit beta (Homo sapiens) (UniProt O14920)", "assay": "Inhibition of human IKBKB at 1 uM using KKKKERLLDDRHDSGLDSMKDEE as substrate in presence of [gamma33P]-ATP by HotSpot assay relative to control"}, "[7]": {"tested_on": "EML4-ALK (Homo sapiens), Q9UM73+Q9HC35 [G1202R]", "details": "BaF3, dose 500.0 nmol/L, time 3-5 weeks"}, "[8]": {"target": "Tyrosine-protein kinase Lyn (Homo sapiens, UniProt P07948)", "assay": "Inhibition of human LYN using poly (Glu, Tyr)4:1 as substrate in presence of [gamma33P]-ATP by HotSpot assay"}, "[9]": {"target": "RAF proto-oncogene serine/threonine-protein kinase (Homo sapiens) (UniProt P04049)", "assay": "Inhibition of human RAF1 at 1 uM using MEK1 as substrate in presence of [gamma33P]-ATP by HotSpot assay relative to control"}, "Ephrin type-A receptor 7": {"target": "Ephrin type-A receptor 7 (Homo sapiens, UniProt Q15375)", "assay": "Inhibition of human EPHA7 using poly (Glu, Tyr)4:1 as substrate in presence of [gamma33P]-ATP by HotSpot assay"}, "[10]": {"target": "Receptor-interacting serine/threonine-protein kinase 2 (Homo sapiens) (UniProt O43353)", "assay": "Inhibition of human RIPK2 at 1 uM using MBP as substrate in presence of [gamma33P]-ATP by HotSpot assay relative to control"}, "[11]": {"target": "Tyrosine-protein kinase Yes (Homo sapiens, UniProt P07947)", "assay": "Inhibition of human YES1 using poly (Glu, Tyr)4:1 as substrate in presence of [gamma33P]-ATP by HotSpot assay"}, "[12]": {"target": "Tyrosine-protein kinase receptor TYRO3 (Homo sapiens) (UniProt Q06418)", "assay": "Inhibition of human TYRO3 at 1 uM using poly (Glu, Tyr)4:1 as substrate in presence of [gamma33P]-ATP by HotSpot assay relative to control"}, "[13]": {"tested_on": "Epidermal growth factor receptor (Homo sapiens), P00533 [L858R,T790M]", "sequence (P00533 whole entry T790M/L858R, looked up)": "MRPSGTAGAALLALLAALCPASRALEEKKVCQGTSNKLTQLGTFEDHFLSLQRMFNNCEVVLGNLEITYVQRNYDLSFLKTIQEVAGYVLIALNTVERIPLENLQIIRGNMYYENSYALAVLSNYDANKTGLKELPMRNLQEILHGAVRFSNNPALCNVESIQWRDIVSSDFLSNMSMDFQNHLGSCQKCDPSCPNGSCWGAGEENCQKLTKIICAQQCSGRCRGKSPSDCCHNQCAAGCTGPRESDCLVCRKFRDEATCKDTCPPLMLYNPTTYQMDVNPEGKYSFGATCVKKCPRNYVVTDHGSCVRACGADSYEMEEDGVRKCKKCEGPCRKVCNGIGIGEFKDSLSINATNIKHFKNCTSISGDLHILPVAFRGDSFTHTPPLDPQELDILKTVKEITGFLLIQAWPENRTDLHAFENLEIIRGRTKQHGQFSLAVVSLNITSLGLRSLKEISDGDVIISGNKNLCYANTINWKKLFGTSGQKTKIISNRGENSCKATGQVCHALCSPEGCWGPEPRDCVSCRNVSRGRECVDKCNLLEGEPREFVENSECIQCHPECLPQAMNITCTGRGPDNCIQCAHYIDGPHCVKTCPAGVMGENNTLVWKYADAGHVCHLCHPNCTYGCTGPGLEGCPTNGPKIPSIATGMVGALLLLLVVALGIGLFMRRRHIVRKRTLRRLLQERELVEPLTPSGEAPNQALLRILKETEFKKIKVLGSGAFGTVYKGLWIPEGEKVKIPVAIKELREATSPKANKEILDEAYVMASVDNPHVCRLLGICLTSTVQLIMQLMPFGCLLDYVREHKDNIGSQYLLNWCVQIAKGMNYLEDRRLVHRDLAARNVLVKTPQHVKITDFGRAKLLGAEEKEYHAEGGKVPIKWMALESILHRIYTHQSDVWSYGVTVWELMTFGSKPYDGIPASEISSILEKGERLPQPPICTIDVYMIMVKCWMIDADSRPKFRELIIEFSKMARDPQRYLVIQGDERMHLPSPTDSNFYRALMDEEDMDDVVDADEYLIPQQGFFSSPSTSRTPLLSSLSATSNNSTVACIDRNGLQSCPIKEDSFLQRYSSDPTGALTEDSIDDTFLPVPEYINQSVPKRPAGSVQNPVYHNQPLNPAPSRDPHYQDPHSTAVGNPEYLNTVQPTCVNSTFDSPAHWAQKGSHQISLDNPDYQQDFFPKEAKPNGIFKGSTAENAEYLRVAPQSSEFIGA", "details": "BaF3, time 72.0 hrs"}, "[14]": {"target": "Ribosomal protein S6 kinase beta-2 (Homo sapiens) (UniProt Q9UBS0)", "assay": "Inhibition of human RPS6KB2 at 1 uM using KKRNRTLTK as substrate in presence of [gamma33P]-ATP by HotSpot assay relative to control"}, "[15]": {"target": "Tyrosine-protein kinase Lck (Homo sapiens, UniProt P06239)", "assay": "Inhibition of human LCK using poly (Glu, Tyr)4:1 as substrate in presence of [gamma33P]-ATP by HotSpot assay"}, "[16]": {"target": "Interleukin-1 receptor-associated kinase 1 (Homo sapiens) (UniProt P51617)", "sequence (P51617 whole entry, looked up)": "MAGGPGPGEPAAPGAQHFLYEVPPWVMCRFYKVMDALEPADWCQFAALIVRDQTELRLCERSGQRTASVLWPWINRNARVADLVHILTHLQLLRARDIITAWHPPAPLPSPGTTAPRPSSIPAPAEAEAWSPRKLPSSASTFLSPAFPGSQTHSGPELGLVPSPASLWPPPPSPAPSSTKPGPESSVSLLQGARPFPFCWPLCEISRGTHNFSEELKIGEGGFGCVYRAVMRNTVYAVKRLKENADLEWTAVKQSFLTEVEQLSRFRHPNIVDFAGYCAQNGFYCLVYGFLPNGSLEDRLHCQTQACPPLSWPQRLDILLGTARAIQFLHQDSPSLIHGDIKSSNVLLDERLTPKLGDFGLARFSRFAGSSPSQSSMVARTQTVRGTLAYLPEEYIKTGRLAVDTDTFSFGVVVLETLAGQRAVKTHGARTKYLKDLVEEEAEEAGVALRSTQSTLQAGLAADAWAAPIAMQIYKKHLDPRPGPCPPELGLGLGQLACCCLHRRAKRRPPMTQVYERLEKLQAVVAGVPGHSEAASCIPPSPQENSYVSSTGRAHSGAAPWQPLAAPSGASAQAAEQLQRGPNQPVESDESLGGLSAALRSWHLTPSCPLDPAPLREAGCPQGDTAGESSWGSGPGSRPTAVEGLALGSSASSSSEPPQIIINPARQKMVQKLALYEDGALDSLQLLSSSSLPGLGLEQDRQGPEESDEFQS", "assay": "Inhibition of human IRAK1 at 1 uM using MBP as substrate in presence of [gamma33P]-ATP by HotSpot assay relative to control"}, "[17]": {"target": "Myosin light chain kinase, smooth muscle (Homo sapiens) (UniProt Q15746)", "assay": "Inhibition of human MYLK at 1 uM using KKLNRTLSFAEPG as substrate in presence of [gamma33P]-ATP by HotSpot assay relative to control"}, "[18]": {"tested_on": "EML4-ALK (Homo sapiens), Q9UM73+Q9HC35 [S1206Y]", "details": "BaF3, time 3-5 weeks"}, "[19]": {"target": "Macrophage-stimulating protein receptor (Homo sapiens) (UniProt Q04912)", "assay": "Inhibition of human MST1R at 1 uM using KKSRGDYMTMQIG as substrate in presence of [gamma33P]-ATP by HotSpot assay relative to control"}, "in vitro": {"assay": "in vitro", "details": "mouse, BaF3 cells"}, "[20]": {"target": "Protein kinase C theta type (Homo sapiens) (UniProt Q04759)", "assay": "Inhibition of human PKCtheta at 1 uM using ERMRPRKRQGSVRRRV as substrate in presence of [gamma33P]-ATP by HotSpot assay relative to control"}, "[21]": {"target": "Rhodopsin kinase GRK7 (Homo sapiens) (UniProt Q8WTQ7)", "assay": "Inhibition of human GRK7 at 1 uM using casein as substrate in presence of [gamma33P]-ATP by HotSpot assay relative to control"}, "[22]": {"target": "Mitogen-activated protein kinase kinase kinase 8 (Homo sapiens) (UniProt P41279)", "assay": "Inhibition of human MAP3K8 at 1 uM using MEK1 as substrate in presence of [gamma33P]-ATP by HotSpot assay relative to control"}, "[23]": {"target": "PAS domain-containing serine/threonine-protein kinase (Homo sapiens) (UniProt Q96RG2)", "assay": "Inhibition of human PASK at 1 uM using KKLNRTLSFAEPG as substrate in presence of [gamma33P]-ATP by HotSpot assay relative to control"}, "[24]": {"target": "Serine/threonine-protein kinase TAO1 (Homo sapiens, UniProt Q7L7X3)", "sequence (Q7L7X3 whole entry)": "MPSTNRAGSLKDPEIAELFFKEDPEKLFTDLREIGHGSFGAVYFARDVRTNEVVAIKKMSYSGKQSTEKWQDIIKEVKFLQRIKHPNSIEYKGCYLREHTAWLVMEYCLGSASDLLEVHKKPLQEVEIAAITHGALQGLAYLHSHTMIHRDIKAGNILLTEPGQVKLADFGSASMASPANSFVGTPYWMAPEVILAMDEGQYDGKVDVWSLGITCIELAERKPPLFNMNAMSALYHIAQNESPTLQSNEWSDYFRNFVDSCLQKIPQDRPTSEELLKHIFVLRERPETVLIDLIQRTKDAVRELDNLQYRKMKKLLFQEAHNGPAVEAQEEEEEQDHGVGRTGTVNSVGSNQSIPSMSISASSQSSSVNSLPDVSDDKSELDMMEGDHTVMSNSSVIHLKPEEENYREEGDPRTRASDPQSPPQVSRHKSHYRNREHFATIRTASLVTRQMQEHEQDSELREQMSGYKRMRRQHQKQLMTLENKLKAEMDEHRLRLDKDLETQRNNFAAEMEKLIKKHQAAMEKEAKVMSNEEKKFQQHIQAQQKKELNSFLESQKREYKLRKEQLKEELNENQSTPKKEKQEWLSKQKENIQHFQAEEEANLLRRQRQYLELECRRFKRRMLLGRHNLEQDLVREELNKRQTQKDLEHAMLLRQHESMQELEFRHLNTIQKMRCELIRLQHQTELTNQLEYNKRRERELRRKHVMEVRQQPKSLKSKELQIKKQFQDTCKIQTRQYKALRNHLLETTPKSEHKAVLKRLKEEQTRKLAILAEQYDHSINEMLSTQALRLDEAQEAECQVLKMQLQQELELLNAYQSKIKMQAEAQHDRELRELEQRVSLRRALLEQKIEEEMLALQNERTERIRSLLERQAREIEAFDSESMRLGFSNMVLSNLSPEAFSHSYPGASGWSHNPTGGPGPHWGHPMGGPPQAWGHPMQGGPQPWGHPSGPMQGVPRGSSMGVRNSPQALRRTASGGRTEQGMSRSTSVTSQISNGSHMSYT", "assay": "Inhibition of human TAOK1 using MBP as substrate in presence of [gamma33P]-ATP by HotSpot assay"}, "BaF3": {"tested_on": "BaF3", "assay": "Antitumor activity against mouse BaF3 cells expressing native EML4-ALK implanted in mouse assessed as tumor regression at 50 mg/kg, po administered once daily and measured after 8 days relative to control", "format": "functional", "details": "time 8 day"}, "[25]": {"target": "MAP/microtubule affinity-regulating kinase 3 (Homo sapiens, UniProt P27448)", "sequence (P27448 whole entry)": "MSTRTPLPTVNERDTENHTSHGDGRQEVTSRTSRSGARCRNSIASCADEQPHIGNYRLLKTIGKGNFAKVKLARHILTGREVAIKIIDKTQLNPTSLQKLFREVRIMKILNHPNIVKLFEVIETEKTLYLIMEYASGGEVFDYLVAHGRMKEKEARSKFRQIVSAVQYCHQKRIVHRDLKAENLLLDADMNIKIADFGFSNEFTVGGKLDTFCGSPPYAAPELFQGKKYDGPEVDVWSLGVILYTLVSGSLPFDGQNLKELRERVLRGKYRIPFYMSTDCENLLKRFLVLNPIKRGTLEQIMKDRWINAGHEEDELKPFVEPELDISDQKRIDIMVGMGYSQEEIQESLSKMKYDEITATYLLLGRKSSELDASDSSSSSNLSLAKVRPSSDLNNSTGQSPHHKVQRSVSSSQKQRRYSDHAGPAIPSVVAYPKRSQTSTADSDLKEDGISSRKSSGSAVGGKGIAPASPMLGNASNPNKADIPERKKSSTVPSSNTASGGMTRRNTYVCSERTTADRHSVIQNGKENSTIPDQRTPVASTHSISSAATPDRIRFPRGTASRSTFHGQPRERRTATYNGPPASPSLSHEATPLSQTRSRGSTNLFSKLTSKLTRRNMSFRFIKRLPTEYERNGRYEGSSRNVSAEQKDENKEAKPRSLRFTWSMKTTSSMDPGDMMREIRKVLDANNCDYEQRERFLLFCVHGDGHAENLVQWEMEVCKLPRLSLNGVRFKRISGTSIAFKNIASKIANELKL", "assay": "Inhibition of human MARK3 using KKKVSRSGLYRSPSMPENLNRPR as substrate in presence of [gamma33P]-ATP by HotSpot assay"}, "[26]": {"target": "Mitogen-activated protein kinase 3 (Homo sapiens) (UniProt P27361)", "assay": "Inhibition of human MAPK3 at 1 uM using MBP as substrate in presence of [gamma33P]-ATP by HotSpot assay relative to control"}},
  "note": "pIC50: −log10 of the molar value. Activity calls are given as the source filed them. No cut-off for these calls is given here.",
  "data": [
    {"molecule": "COc1cc(N2CCC(N3CCN(C)CC3)CC2)ccc1Nc1ncc(Cl)c(Nc2ccccc2P(C)(C)=O)n1", "note": "[BRIGATINIB]", "values": [
      {"measurement": "inhibition", "setting": "[1]", "result": "< 90", "unit": "%"},
      {"measurement": "inhibition", "setting": "[2]", "result": "< 90", "unit": "%"},
      {"measurement": "inhibition", "setting": "[3]", "result": "< 90", "unit": "%"},
      {"measurement": "Activity", "setting": "[4]", "result": "Non-Toxic"},
      {"measurement": "inhibition", "setting": "[5]", "result": "< 90", "unit": "%"},
      {"measurement": "inhibition", "setting": "[6]", "result": "< 90", "unit": "%"},
      {"measurement": "inhibition", "setting": "[7]", "result": "Active"},
      {"measurement": "pIC50", "setting": "[8]", "result": 6.62},
      {"measurement": "inhibition", "setting": "[9]", "result": "< 90", "unit": "%"},
      {"measurement": "pIC50", "setting": "Ephrin type-A receptor 7", "result": "< 6.00"},
      {"measurement": "inhibition", "setting": "[10]", "result": "< 90", "unit": "%"},
      {"measurement": "pIC50", "setting": "[11]", "result": 7.72},
      {"measurement": "inhibition", "setting": "[12]", "result": "< 90", "unit": "%"},
      {"measurement": "IC90", "setting": "[13]", "result": 2970, "unit": "nM"},
      {"measurement": "inhibition", "setting": "[14]", "result": "< 90", "unit": "%"},
      {"measurement": "pIC50", "setting": "[15]", "result": 6.29},
      {"measurement": "inhibition", "setting": "[16]", "result": "< 90", "unit": "%"},
      {"measurement": "inhibition", "setting": "[17]", "result": "< 90", "unit": "%"},
      {"measurement": "IC90", "setting": "[18]", "result": 109, "unit": "nM"},
      {"measurement": "inhibition", "setting": "[19]", "result": "< 90", "unit": "%"},
      {"measurement": "pIC50", "setting": "in vitro", "result": 5.49},
      {"measurement": "IC90", "setting": "in vitro", "result": 9500, "unit": "nM"},
      {"measurement": "inhibition", "setting": "[20]", "result": "< 90", "unit": "%"},
      {"measurement": "inhibition", "setting": "[21]", "result": "< 90", "unit": "%"},
      {"measurement": "inhibition", "setting": "[22]", "result": "< 90", "unit": "%"},
      {"measurement": "inhibition", "setting": "[23]", "result": "< 90", "unit": "%"},
      {"measurement": "pIC50", "setting": "[24]", "result": 6.31},
      {"measurement": "Activity", "setting": "BaF3", "result": 89, "unit": "%"},
      {"measurement": "pIC50", "setting": "[25]", "result": 6.90},
      {"measurement": "inhibition", "setting": "[26]", "result": "< 90", "unit": "%"}
    ]}
  ]
}
